{"source": "patent US20090117199A1", "about": "“Method of treatment of cancer” (priority 1998, published 2009)", "key": {"[1]": {"tested_on": "spontaneous breast tumors", "assay": "Tumor response to IL 10% RB in saline, report 020626.01C", "assay_type": "in vivo, Neu+/+ x (1988A2Kb x Neu+/+) mice", "settings": "10% RB IL 50 μL/tumor Qd × 1"}, "[2]": {"tested_on": "MCF-7 [ER−] tumors", "assay": "Tumor response to IL 10% RB in saline, report 020110.01B", "assay_type": "in vivo, BALB/c Nude Mice", "settings": "10% RB IL 25-50 μL/tumor Qd × 1; within 21 days; 4/group"}, "[3]": {"assay": "Partitioning coefficient of RB, 1-octanol/0.9% saline, effect of pH", "experimental": "The partition coefficient of RB was assessed over a range of pH values. The experiments were conducted by titrating RB solutions, measuring pH, then placing aliquots of the solutions into vials containing both organic (1-octanol) and aqueous (0.9% saline) phases. After mixing, the agents were allowed to partition for approximately 1 day. Based on absorption measurements (at the same wavelengths used in Experiment 1), the percentage of agent in each phase, the Kp and LogD (log of Kp) was reported.\nExperiment 1 was conducted using a stock solution of 0.42 mg/mL RB, whereas Experiment 3 was conducted using a concentration of 0.08 mg/mL."}, "[4]": {"tested_on": "T-47D [ER−] tumors", "assay": "Tumor response to IL 10% RB in saline, report 020110.01B", "assay_type": "in vivo, BALB/c Nude Mice", "settings": "10% RB IL 25-50 μL/tumor Qd × 1; long passage T-47D [ER−]; 4/group"}, "[5]": {"tested_on": "Murine Hepa I-6 tumors", "assay": "Tumor response to IL 10% RB in saline, report 020111.01B", "assay_type": "in vivo, BALB/c Nude Mice", "settings": "IL 30-50 μL/tumor Qd × 1; 8/group"}, "[6]": {"tested_on": "PC-3 human prostate tumors", "assay": "Tumor response to IL 10% RB in saline, report 051017.02B", "assay_type": "in vivo, Nu/nu Nude Mice", "settings": "10% RB 45 μL/tumor Qd × 1; 24 hours post injection and over 29 days of observation"}, "[7]": {"tested_on": "MCF-7 [ER+] tumors", "assay": "Tumor response to IL 10% RB in saline, report 020110.01B", "assay_type": "in vivo, BALB/c Nude Mice", "settings": "10% RB IL 25-50 μL/tumor Qd × 1; within 21 days; 4/group"}, "[8]": {"tested_on": "H69Ar human resistant SCLC tumors", "assay": "Tumor response to IL 10% RB in saline, report 051017.01B", "assay_type": "in vivo, Nu/nu Nude Mice", "settings": "10% RB 45 μL/tumor Qd × 1; 24 hours post injection and over 7 days of observation"}, "[9]": {"assay": "Local tolerance, single subcutaneous injection into normal tissue", "experimental": "The local tolerance study was conducted using female Crl:SKH-1-hrBR hairless mice (Charles river), at least 6 weeks of age and 19-27 g at study Day 1.\nAll dosing was performed on Study Day 1. Follow-up examination of mice was conducted at regular intervals and the test terminated on either day 4 (3 animal from each group) or Day 15 (the remaining three animals).\nClinical observations were recorded daily (including dermal scoring using the Draize scoring system). Upon sacrifice, animals were subjected to a comprehensive necroscopy. Tissue samples from the injection site (and surrounding tissue) were obtained and examined histologically."}, "[10]": {"assay": "Biodistribution (pharmacokinetic and toxicokinetic) after single IL injection in A375 tumor", "assay_type": "in vivo, nu/nu mice", "settings": "single IL injection of 1% or 6% RB", "experimental": "Growth control and sham treatment groups received no injection. All dosing was performed on Study Day 1.\nPharmacokinetic and toxicokinetic data from RB-treated tumors illustrates that a single IL injection of RB leads to localized retention of drug tumor tissue. This is illustrated in FIGS. 4 and 5, which show concentration of RB in tumor tissue, peritumor tissue and blood for time points ranging from 0.5 hr to 360 hr (15 days) post injection."}, "[11]": {"settings": "cited from earlier work"}}, "note": "“Also recorded” adds a separate entry of the source.", "data": [{"smiles": "O=C([O-])c1c(Cl)c(Cl)c(Cl)c(Cl)c1-c1c2cc(I)c(=O)c(I)c-2oc2c(I)c([O-])c(I)cc12.[Na+].[Na+]", "note": "[RB, 4,5,6,7-Tetrachloro-2′,4′,5′,7′-tetraiodofluorescein]", "values": [{"measurement": "tumor response", "setting": "[1]", "value": "IL RB ablated spontaneous breast"}, {"measurement": "tumors completely ablated", "setting": "[2]", "value": "[ER+] (4/4), MCF-7 [ER−] (4/4),"}, {"measurement": "solubility", "setting": "[3]", "value": 195, "unit": "µg/mL"}, {"measurement": "partitioning coefficient versus pH", "setting": "[3]; below a pH of about 4.4", "value": "rapidly increases"}, {"measurement": "solubility of RB in the aqueous phase", "setting": "[3]; below a pH of about 4.4 (lactone form)", "value": "almost complete insolubility"}, {"measurement": "partitioning coefficient versus pH", "setting": "[3]; pH range about 4 to about 10, 1-octanol/0.9% saline", "value": "consistent"}, {"measurement": "tumors ablated", "setting": "[4]", "value": "(3/4)."}, {"measurement": "damage/necrosis to peripheral normal tissue", "setting": "[5]", "value": "peripheral normal tissue (0/8)"}, {"measurement": "tumors fully ablated", "setting": "[6]", "value": "IL RB fully ablated 8/8 tumors 24"}, {"measurement": "tumors completely ablated", "setting": "[7]", "value": "[ER+] (4/4), MCF-7 [ER−] (4/4),"}, {"measurement": "tumors fully ablated", "setting": "[8]", "value": "IL RB fully ablated 5/5 tumors 24"}, {"measurement": "fatalities", "setting": "[9]; SC, 2000 mg/kg study group (days 2 and 3), N=6", "value": "two fatalities"}, {"measurement": "swelling at the injection site", "setting": "[9]; SC, 250 and 500 mg/kg", "value": "Swelling was also noted in the injection site for most animals"}, {"measurement": "injection site effect", "setting": "[9]; SC, 1250-2000 mg/kg", "value": "massive necrosis at the injection site"}, {"measurement": "histology of injection site", "setting": "[9]; SC, <500 mg RB kg body weight, days 4 and 15", "value": "focal necrosis at the injection site"}, {"measurement": "histological necrosis in normal tissue", "setting": "[9]; SC, dosages up to 250 mg/kg at 1 days post administration", "value": "no histological evidence of necrosis"}, {"measurement": "clinical outcome, local tolerance", "setting": "[9]; SC, up to 500 mg RB/kg body weight (10%)", "value": "mild side effects primarily limited to localized discoloration of the injection site; also recorded: only mild clinical effects"}, {"measurement": "systemic effects", "setting": "[9]; lower dosage groups (below 2000 mg/kg)", "value": "No systemic effects"}, {"measurement": "kidney lesions", "setting": "[9]; one of the two fatalities in Group 6 (2000 mg/kg)", "value": "mild degeneration of the kidney"}, {"measurement": "liver lesions", "setting": "[9]; the two fatalities in Group 6 (2000 mg/kg)", "value": "mild to moderate degeneration of the liver"}, {"measurement": "persistence of markedly elevated RB levels in tumor samples", "setting": "[10]; post-injection", "value": "at least 8 days"}, {"measurement": "mean levels of RB in blood", "setting": "[10]; 0.5 hr to 360 hr post injection", "value": "≤ 3", "unit": "µg/g"}, {"measurement": "half-life of RB in the murine blood stream", "setting": "[11]", "value": "approximately 30 min"}]}]}
